Data reported in article PMC7684313, “In vitro and in vivo pharmacological activity of minor cannabinoids isolated from Cannabis sativa” (Scientific Reports, 2020).
“Also recorded” adds a separate entry of the source. Where two headings read alike, the source gives them in different places. Marks after values point to notes of the source that are not given here.

How the values were obtained:
hCB1R [1] = target: T1, hCB1R (Homo sapiens, UniProt P21554); assay: biochemical; format: binding
T1 construct: expressed in transfected cells; membranes

hCB1R [2] = target: T1, hCB1R; assay: cell-based; format: cell-based; conditions: for Emax: CHO, read-out: hCB1R Emax, inhibition of FSK-stimulated cAMP accumulation
hCB1R [3] = target: T1, hCB1R; assay: cell-based; conditions: for Emax: CHO, read-out: hCB1R Emax, recruitment of βarrestin2
hCB1R [4] = target: T1, hCB1R; assay: Ligand bias between cAMP inhibition and βarrestin2 recruitment at hCB1R (operational model); format: cell-based; conditions: ∆∆LogR > 0 bias for inhibition of cAMP, < 0 bias for βarrestin2; CP55,940 reference agonist
Method: (§1) Figure 8 Analysis of ligand bias for phytocannabinoids at hCB1R (a) and hCB2R (b).
(§2) Concentration–response curves (CRC) were fit using non-linear regression with variable slope (4 parameters) and used to calculate EC50, Emin, and Emax (GraphPad, Prism, v. 8.0). […] In vivo data are presented as % MPE for catalepsy (MPE = 60 s) and anti-nociception (MPE = 20 s), °C for body temperature, and distance travelled (m) and % time in the centre quadrant in 5 min for OFT. Post-hoc analyses were performed using Tukey’s (one-way ANOVA) test. Homogeneity of variance was confirmed using Bartlett’s test. All data were evaluated for possible outliers using Grubb’s test in GraphPad.

C57BL/6 mice [5] = assay: Nociception in the tail flick assay (tetrad); format: in vivo
Method: (§3) Asterisk colour matches the treatment group assessed.
as §2

C57BL/6 mice [6] = assay: Locomotion in the open field test (OFT); format: in vivo
Method: as §3, §2

hCB2R [7] = target: T2, hCB2R (Homo sapiens, UniProt P34972); assay: hCB2R-dependent inhibition of FSK-stimulated cAMP accumulation (HitHunter CHO cells); format: cell-based; set-up: expressed in transfected cells; membranes; conditions: for Emax: CHO; for agonist activity in hCB2R cAMP inhibition, in words: 0.1 nM–10 µM, relative to CP55,940
hCB2R [8] = target: T2, hCB2R; assay: hCB2R-dependent recruitment of βarrestin2 (PathHunter CHO cells); format: cell-based; set-up: expressed in transfected cells; membranes; conditions: for Emax: CHO; for activity in hCB2R βarrestin2 recruitment, in words: 0.1 nM–10 µM, relative to CP55,940
hCB2R [9] = target: T2, hCB2R; assay: Ligand bias between cAMP inhibition and βarrestin2 recruitment at hCB2R (operational model); format: cell-based; set-up: expressed in transfected cells; membranes; conditions: ∆∆LogR > 0 bias for inhibition of cAMP, < 0 bias for βarrestin2; CP55,940 reference agonist
Method: as §1, §2

hCB2R [10] = target: T2, hCB2R; assay: [^3H]CP55,940 displacement from hCB2R CHO cell membranes; conditions: for hCB2R Emin: bottom of the concentration–response curve of [^3H]CP55,940 displacement, %CP55,940 response, mean ± SEM; for extent of [^3H]CP55,940 displacement from hCB2R, in words: concentration range 0.1 nM–10 µM
C57BL/6 mice [11] = assay: Tetrad of assays, overall; conditions: between 1 and 10 mg/kg
hCB2R [12] = target: T2, hCB2R; assay: biochemical
C57BL/6 mice [13] = assay: Catalepsy in the ring holding assay (tetrad); format: in vivo; conditions: MPE 60 s = 100%
Method: as §3, §2

C57BL/6 mice [14] = assay: Body temperature (tetrad); format: in vivo
Method: as §3, §2

C57BL/6 mice [15] = assay: Time in the centre quadrant of the OFT (anxiety-like behaviour); format: in vivo; conditions: 1 h post-injection
Method: as §3, §2

[16] = HitHunter CHO hCB1R cells, 90 min, 95% CI in brackets, read-out: hCB1R EC50, inhibition of FSK-stimulated cAMP accumulation
[17] = PathHunter CHO hCB1R cells, 90 min, 95% CI in brackets, read-out: hCB1R EC50, recruitment of βarrestin2
[18] = 10 mg/kg i.p., 1 h post-injection
[19] = HitHunter CHO hCB2R cells, 90 min, 95% CI in brackets, read-out: hCB2R EC50, inhibition of FSK-stimulated cAMP accumulation
[20] = PathHunter CHO hCB2R cells, 90 min, 95% CI in brackets, read-out: hCB2R EC50, recruitment of βarrestin2
[21] = dose range 0.1–10 mg/kg i.p., 15 min post-injection

T1 sequence (P21554 whole entry): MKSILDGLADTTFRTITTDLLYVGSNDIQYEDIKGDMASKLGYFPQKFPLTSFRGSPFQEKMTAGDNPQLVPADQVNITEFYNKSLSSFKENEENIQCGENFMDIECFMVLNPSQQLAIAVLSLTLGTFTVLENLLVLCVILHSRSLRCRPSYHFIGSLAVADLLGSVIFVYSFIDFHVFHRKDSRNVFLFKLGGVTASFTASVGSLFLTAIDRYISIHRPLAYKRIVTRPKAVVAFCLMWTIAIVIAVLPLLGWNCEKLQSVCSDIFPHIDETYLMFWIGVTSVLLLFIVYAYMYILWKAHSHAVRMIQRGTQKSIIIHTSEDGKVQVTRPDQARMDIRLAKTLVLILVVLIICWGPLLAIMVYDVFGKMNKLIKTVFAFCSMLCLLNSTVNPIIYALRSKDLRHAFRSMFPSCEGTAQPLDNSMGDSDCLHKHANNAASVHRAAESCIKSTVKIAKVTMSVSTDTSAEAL
T2 sequence (P34972 whole entry): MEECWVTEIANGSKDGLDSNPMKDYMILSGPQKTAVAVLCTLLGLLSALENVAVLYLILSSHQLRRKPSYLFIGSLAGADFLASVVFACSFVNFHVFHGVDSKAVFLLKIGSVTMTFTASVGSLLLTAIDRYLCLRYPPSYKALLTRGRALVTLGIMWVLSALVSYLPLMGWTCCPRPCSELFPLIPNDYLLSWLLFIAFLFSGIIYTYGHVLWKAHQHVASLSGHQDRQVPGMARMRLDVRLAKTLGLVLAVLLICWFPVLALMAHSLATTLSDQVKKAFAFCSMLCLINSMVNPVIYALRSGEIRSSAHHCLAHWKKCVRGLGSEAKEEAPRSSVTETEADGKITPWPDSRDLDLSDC

SMILES	Ki (hCB1R [1]) [nM]	extent of [^3H]CP55,940 displacement from hCB1R, in words (hCB1R [1])	hCB1R Emin (hCB1R [1])	Emax (hCB1R [2]) [%]	EC50 (hCB1R [2]; [16]) [nM]	Emax (hCB1R [3]) [%]	EC50 (hCB1R [3]; [17]) [nM]	ligand bias at hCB1R (∆∆LogR), in words (hCB1R [4])	Emax (hCB2R [7]) [%]	Emax (hCB2R [8]) [%]	ligand bias at hCB2R (∆∆LogR), in words (hCB2R [9])	hCB2R Emin (hCB2R [10])	extent of [^3H]CP55,940 displacement from hCB2R, in words (hCB2R [10])	activity in hCB2R βarrestin2 recruitment, in words (hCB2R [8])	Ki (hCB2R [12]) [nM]	anti-nociceptive effect (tail flick latency), in words (C57BL/6 mice [5]; [21])	other results
CCCCCc1cc(O)c2c(c1)OC(C)(CCC=C(C)C)C=C2 (centres unmarked) [CBC, cannabichromene]	11	partially displaced	55 ± 3.7*^ %	68 ± 9.7	190	6.9 ± 0.96	> 10000	bias for the inhibition of cAMP relative to βarrestin2	76 ± 5.4	12 ± 2.8	bias for inhibition of cAMP relative to βarrestin2	9.7 ± 5.9 %	displaced [^3H]CP55,940 from hCB2R to an extent that was not different from CP55,940	–	–	–	anti-nociceptive effect (tail flick latency), in words (C57BL/6 mice [5]; 3 mg/kg i.p., 15 min post-injection): weak anti-nociceptive effect; total locomotion in the OFT, in words (C57BL/6 mice [6]; [18]): Hypolocomotive responses; EC50 (hCB2R [7]; [19]): 7.1 nM; EC50 (hCB2R [8]; [20]): > 10000 nM
C=C(C)[C@@H]1CCC(C)=C[C@H]1c1c(O)cc(CCCCC)cc1O [CBD, cannabidiol, reference compound]	–	weakly displaced [^3H]CP55,940 at concentrations ≥ 1 µM	–	26 ± 1.6	–	1 ± 1.6	–	–	61 ± 2.3	23 ± 2.8	–	54 ± 9.3*^ %	–	modest agonist activity	–	–	effects in the tetrad of assays, in words (C57BL/6 mice [11]): no effects
C=C(C)[C@@H]1CCC(C)=C[C@H]1c1c(O)cc(CCCCC)c(C(=O)O)c1O [CBDa, cannabidiolic acid]	> 10000	weakly displaced [^3H]CP55,940 at concentrations ≥ 1 µM	96 ± 6.5*^ %	22 ± 1.1	30	0.1 ± 0.11	> 10000	bias for the inhibition of cAMP relative to βarrestin2	32 ± 4.2	18 ± 2.5	bias for inhibition of cAMP relative to βarrestin2	30 ± 7.8 %	displaced [^3H]CP55,940 from hCB2R to an extent that was not different from CP55,940	–	12	–	total locomotion in the OFT, in words (C57BL/6 mice [6]; [18]): Hypolocomotive responses; EC50 (hCB2R [7]; [19]): 140 nM; EC50 (hCB2R [8]; [20]): > 10000 nM
CCCCCCC(C)(C)c1ccc([C@@H]2C[C@H](O)CC[C@H]2CCCO)c(O)c1 [CP55,940, reference compound]	–	–	0.0 ± 5.2%	–	–	–	–	–	–	–	–	0.0 ± 6.2%	–	–	–	–	cataleptic response, % of maximum possible effect (MPE) (C57BL/6 mice [13]; 0.1 mg/kg i.p.): 25%; effect on body temperature, in words (C57BL/6 mice [14]; 0.1 mg/kg i.p.): decreased body temperature; anti-nociceptive effect (tail flick latency), in words (C57BL/6 mice [5]; 0.1 mg/kg i.p., 15 min post-injection): anti-nociceptive effects; total locomotion in the OFT, in words (C57BL/6 mice [6]; 0.1 mg/kg i.p., 1 h post-injection): reduced total locomotion
CCCc1cc(O)c2c(c1)OC(C)(C)[C@@H]1CCC(C)=C[C@@H]21 [THCV, ∆^9-tetrahydrocannabivarin]	22	partially displaced	54 ± 4.1*^ %	59 ± 3.9	260	0.05 ± 2.1	> 10000	–	79 ± 1.3	50 ± 6.8	–	27 ± 9.5%	displaced [^3H]CP55,940 from hCB2R to an extent that was not different from CP55,940	demonstrable efficacy at hCB2R in the βarrestin2 recruitment assay, but with very low potency; also recorded: agonist	47	dose-dependent increase in anti-nociceptive effects	agonist activity in hCB1R cAMP inhibition, in words (hCB1R [2]): weak partial agonist response; cataleptic response, % of maximum possible effect (MPE) (C57BL/6 mice [13]; 10 mg/kg i.p.): 39%; effect on body temperature, in words (C57BL/6 mice [14]; 10 mg/kg i.p.): decreased body temperature; also recorded: hypothermic; anti-nociceptive effect (tail flick latency), in words (C57BL/6 mice [5]; 3 and 10 mg/kg i.p.): anti-nociceptive; total locomotion in the OFT, in words (C57BL/6 mice [6]; 3 and 10 mg/kg i.p.): hypolocomotive; time in the central quadrant of the OFT (modelled anxiolytic effect), in words (C57BL/6 mice [15]; 3 and 10 mg/kg i.p.): anxiolytic; EC50 (hCB2R [7]): 280 nM; agonist activity in hCB2R cAMP inhibition, in words (hCB2R [7]): agonist; EC50 (hCB2R [8]): > 10000 nM
CCCCCc1cc(O)c2c(c1)OC(C)(C)[C@@H]1CCC(C)=C[C@@H]21 [∆^9-THC, ∆^9-tetrahydrocannabinol, reference compound]	–	–	–	–	–	–	–	–	76 ± 8.6	46 ± 4.9	bias for inhibition of cAMP relative to βarrestin2	7.4 ± 4.4%	displaced [^3H]CP55,940 from hCB2R to an extent that was not different from CP55,940	modest agonist activity	–	dose-dependent increase in anti-nociceptive effects	cataleptic response, % of maximum possible effect (MPE) (C57BL/6 mice [13]; 3 mg/kg i.p.): 17%; cataleptic response, % of maximum possible effect (MPE) (C57BL/6 mice [13]; 10 mg/kg i.p.): 100%; effect on body temperature, in words (C57BL/6 mice [14]; 3 and 10 mg/kg i.p.): decreased body temperature
CCCCCc1cc2c(c(O)c1C(=O)O)[C@@H]1C=C(C)CC[C@H]1C(C)(C)O2 [∆^9-THCa, ∆^9-tetrahydrocannabinolic acid]	620	partially displaced	67 ± 11*^ %	35 ± 11	–	4.1 ± 1.5	–	bias for the inhibition of cAMP relative to βarrestin2	95 ± 1.5	15 ± 2.5	–	49 ± 7.2*^ %	–	–	1.3	dose-dependent increase in anti-nociceptive effects	EC50 (hCB1R [2]): > 10000 nM; agonist activity in hCB1R cAMP inhibition, in words (hCB1R [2]): weak partial agonist; EC50 (hCB1R [3]): > 10000 nM; anti-nociceptive effect (tail flick latency), in words (C57BL/6 mice [5]; 3 and 10 mg/kg i.p.): anti-nociceptive; total locomotion in the OFT, in words (C57BL/6 mice [6]; 3 and 10 mg/kg i.p.): hypolocomotive effects; time in the central quadrant of the OFT (modelled anxiolytic effect), in words (C57BL/6 mice [15]; 10 mg/kg i.p.): anxiolytic-like effects; EC50 (hCB2R [7]): 1800 nM; agonist activity in hCB2R cAMP inhibition, in words (hCB2R [7]): weakly potent agonist; EC50 (hCB2R [8]): > 10000 nM
